{"source": "patent US20100209348A1", "about": "“METHODS FOR DETERMINING LIPOSOME BIOEQUIVALENCE” (Arondo Pharma, Inc., priority 2009, published 2010)", "origin": "cited, not measured here", "conditions": "IV infusion up to 60 min, up to 60 mg/m^2 every 3 weeks (dose rate 20 mg/m^2/week)", "note": "Structures can show the parent of a compound that is named as a salt.", "data": [{"compound": "COc1cccc2c1C(=O)c1c(O)c3c(c(O)c1C2=O)C[C@@](O)(C(=O)CO)C[C@@H]3O[C@H]1C[C@H](N)[C@H](O)[C@H](C)O1", "note": "[doxorubicin, Doxorubicin HCl]", "values": [{"measurement": "clinically significant PPE", "result": "does not typically cause clinically significant PPE"}]}]}
